In article PMC10709440, “High-throughput ligand profile characterization in novel cell lines expressing seven heterologous insect olfactory receptors for the detection of volatile plant biomarkers” (Scientific Reports, 2023):
Like-named read-outs stand apart in the source and are kept apart here.

Legend:
[1] = target: T1, Drosophila OR85b (Drosophila melanogaster, UniProt Q9VHQ7); test: Calcium ion fluorescence (GCaMP6) assay, OR85b stable HEK293 cell line; format: cell-based; details: for Average response / OR85b response (VUAA1-normalized) at 1 μM / OR85b response (VUAA1-normalized) at 10 μM / OR85b response (VUAA1-normalized) at 100 μM: OR85b cell line; for Average response: VUAA1-normalized response, mean of biological replicates; for DF norm AVERAGE OR85b: threshold 0.05, below shown as 0; for OR85b response (VUAA1-normalized) at 1 μM: VOC concentration 1 μM; for OR85b response (VUAA1-normalized) at 10 μM: VOC concentration 10 μM; for OR85b response (VUAA1-normalized) at 100 μM: VOC concentration 100 μM
T1 construct: expressed in transfected cells
T1 sequence (Q9VHQ7 1-390): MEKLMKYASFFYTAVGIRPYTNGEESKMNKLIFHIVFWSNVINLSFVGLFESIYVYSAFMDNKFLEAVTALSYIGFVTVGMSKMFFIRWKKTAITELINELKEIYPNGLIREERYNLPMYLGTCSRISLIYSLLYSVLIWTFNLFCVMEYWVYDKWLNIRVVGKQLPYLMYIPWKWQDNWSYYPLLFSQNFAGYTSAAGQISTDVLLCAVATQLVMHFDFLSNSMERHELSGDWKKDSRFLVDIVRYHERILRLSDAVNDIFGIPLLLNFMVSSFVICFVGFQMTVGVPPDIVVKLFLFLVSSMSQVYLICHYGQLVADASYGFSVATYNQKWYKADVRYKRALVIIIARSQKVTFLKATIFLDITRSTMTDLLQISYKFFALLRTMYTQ
T1 sequence (Q9VNB5 1-486 partner): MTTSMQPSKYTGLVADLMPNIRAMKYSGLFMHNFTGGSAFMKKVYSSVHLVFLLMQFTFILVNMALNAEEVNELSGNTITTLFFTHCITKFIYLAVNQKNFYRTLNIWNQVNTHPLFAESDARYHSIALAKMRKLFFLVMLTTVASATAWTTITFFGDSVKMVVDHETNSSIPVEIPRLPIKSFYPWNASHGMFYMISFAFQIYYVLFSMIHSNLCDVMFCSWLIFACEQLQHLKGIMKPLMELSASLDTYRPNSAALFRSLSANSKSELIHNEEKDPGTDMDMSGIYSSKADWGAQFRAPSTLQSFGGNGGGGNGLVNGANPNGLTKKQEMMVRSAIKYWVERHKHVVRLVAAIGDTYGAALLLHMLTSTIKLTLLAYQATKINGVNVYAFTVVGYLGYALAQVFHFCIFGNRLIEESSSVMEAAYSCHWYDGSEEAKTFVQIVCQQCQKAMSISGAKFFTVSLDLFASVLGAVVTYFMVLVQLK
Outline: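 Responses are VUAA1-normalized ΔF: each VOC-evoked calcium signal, (FMAX−F0)/F0 over 30 s after injection, divided by the same line's mean 50 µM VUAA1 response. Cells were doxycycline-induced HEK293 with GCaMP6 and the cognate Drosophila OR, in HEPES buffer pH 7.3; ligands tested 0.01–100 μM.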

[2] = system: OR10a; design: method as in earlier work; details: DoOR database value, ref DoOR, cited from earlier work
[3] = system: OR13a; design: method as in earlier work; details: DoOR database value, ref DoOR, cited from earlier work
[4] = system: OR47a; design: method as in earlier work; details: DoOR database value, ref DoOR, cited from earlier work
[5] = system: OR49b; design: method as in earlier work; details: DoOR database value, ref DoOR, cited from earlier work
[6] = system: OR85b; design: method as in earlier work; details: DoOR database value, ref DoOR, cited from earlier work
[7] = system: OR98a; design: method as in earlier work; details: DoOR database value, ref DoOR, cited from earlier work
[8] = system: OR71a; design: method as in earlier work; details: DoOR database value, OR71a; ref DoOR; cited from earlier work
[9] = HEK293, read-out: OR85b response (VUAA1-normalized response)
[10] = ligand concentration 1 (unit not given)
[11] = ligand concentration 10 (unit not given)
[12] = ligand concentration 100 (unit not given)
[13] = HEK293, read-out: OR85b Average response (VUAA1-normalized)

Structure (SMILES)	Average response ([1]; cc. 1 µM)	Average response ([1]; cc. 10 µM)	Average response ([1]; cc. 100 µM)	DF norm AVERAGE OR85b [1, 10]	DF norm AVERAGE OR85b [1, 11]	DF norm AVERAGE OR85b [1, 12]	OR85b response (VUAA1-normalized) at 1 μM [1]	OR85b response (VUAA1-normalized) at 10 μM [1]	OR85b response (VUAA1-normalized) at 100 μM [1]	OR10a DoOR response ([2]; OR10a)	OR13a DoOR response ([3]; OR13a)	OR47a DoOR response ([4]; OR47a)	OR49b DoOR response ([5]; OR49b)	OR85b DoOR response ([6]; OR85b)	OR98a DoOR response ([7]; OR98a)	OR71a DoOR response [8]	further results
CCOC(=O)CC [ethyl propionate]	0.00	0.037	0.09	0	0	0.09327											activation at 1 µM [1, 9]: 0%; activation at 10 µM [1, 9]: 0%; activation at 100 µM [1, 9]: 9%; OR10a DoOR response [2]: 0.064; OR13a DoOR response [3]: 0.034; OR47a DoOR response [4]: 0.16; OR49b DoOR response [5]: 0.017; OR85b DoOR response [6]: 0.066; OR98a DoOR response [7]: 0.08
C=CC(C)(O)CCC=C(C)C (stereo not drawn) [linalool]	0.045	0.00	0.06	0	0	0.06299	0.00	0.00	0.06	0.001	0.16	0.04	0.016	0.16	0.47		
COC(=O)c1ccccc1 [methyl benzoate]	0.00	0.00	0.00	0	0	0	0.00	0.00	0.00	0.63		0.09	0.035	0.036	0.70	0.28	
Cc1ccc(C(C)C)cc1 [p-cymene]	0.00	0.12	0.09	0	0.1172	0.09049	0.00	0.12	0.09	-0.003		0.018	0.014	-0.004	-0.012	0.063	
CCCCCOC(C)=O [pentyl acetate]	0.0185	0.04	0.14	0	0	0.1368	0.00	0.00	0.14	0.03	0.39	0.82	0.022	0.56	0.64		activation at 1 µM [1, 13]: 2%; activation at 10 µM [1, 13]: 4%; activation at 100 µM [1, 13]: 14%
